In US20260317340A1, “COMPOUNDS, COMPOSITIONS, AND METHODS OF TREATING DISORDERS” (Chengdu Anticancer Bioscience, Ltd., priority 2023, published 2026):
Where two headings read alike, the source gives them in different places.

Key:
[1] = system: RPE-Neo or RPE-MYC cells; assay: MTT assay of cellular proliferation (proliferative arrest); format: cell-based; conditions: read-out: Min. Effective conc. for Proliferative arrest (>50%)
[2] = system: RPE-Neo or RPE-MYC or RPE-MYC expressing an EGFP-Histone 2B fusion protein; assay: Phenotypic screening assay: arrest in mitosis, change in DNA content (polyploidy), cell death; format: cell-based; conditions: 20 nM to 20 μM, 24, 48 or 72 hours
Method in brief: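 RPE-Neo, RPE-MYC or RPE-MYC EGFP-H2B cells plated 18-24 h before treatment with compounds at 20 nM to 20 μM. Mitotic arrest or DNA-content change scored by automated imaging at 24, 48 or 72 h; proliferation by MTT. Values binned into A–D ranges.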

[3] = system: human cancer cell line NCI-H460; assay: Tumor growth inhibition, NCI-H460 tumors in BAL B/c nude mice; format: in vivo, human tumor cell line in BAL B/c nude mice; conditions: oral, 4 days-on, 3 days-off, 30% PEG300
Procedure: (§1) Six- to seven-week-old female BAL B/c nude mice were used in the human cancer cell line NCI-H460, which was derived from a lung cancer patient. Six- to seven-week-old female BAL B/c mice were used in the mouse […] cell line CT26 allograft models. 100 μL cell suspensions containing one million cells with […] (Corning, Cat. No. 354254) were implanted subcutaneously into the right flank of mice. Mice were monitored daily for well-being and weighed twice weekly. Caliper measurements of tumor sizes began when tumors became visible. Tumor volume (TV) was calculated by measuring two perpendicular diameters using the following formula: (L×W2)/2 in which L and W refer to the length and width of a tumor, respectively. When tumors reached an average size of 100 mm3, mice were first ranked according to tumor size and divided into “n” cohorts with X mice in each cohort. Each cohort was then sorted into 1 to X groups according to the random numbers size order generated by the RAND 0)function in Excel. In this way, the mice were randomized into X groups (n=4-6). Then the mice were orally administrated with vehicle (30% PEG 300) or indicated compounds at a dose volume of 5 mL/kg in a double-blinded manner. Oral administration was chosen because this is the intended route of use in the clinic. In all cases, no tumor measurement data or animals were excluded from the data analysis. Percentage of tumor growth inhibition (TGI) was calculated using the following formula: % TGI=average 100×[1−(final TV−initial TV of treatment group)/(final TV−initial TV of control group)]. As set forth in table 3 below, an values of greater than or equal to 35% and less than or equal to 45% […] is marked “C”; a value greater than 45% and less than or equal to 55% is marked “B”; a value greater than 55% and less than or equal to 70% is marked “A”; and […]

[4] = Tumor growth inhibition, CT26 allograft in BAL B/c mice; format: in vivo, mouse tumor cell line in BAL B/c mice; conditions: oral, 4 days-on, 3 days-off, 20 days, 30% PEG300
Procedure: as §1

[5] = read-out: Min. Effective conc. for Along with Cell Death
[6] = ≥5%, read-out: Min. Effective conc. for Mitotic Arrest (≥5%)
[7] = ≥5%, read-out: Min. Effective conc. for Polyploidy (≥5%)

SMILES: COc1ccc(CN2C(=O)CC(c3ncc(C)o3)=Cc3ccc(-c4cnn(CCO)c4)cc32)cc1 [Compound 36, 8-(1-(2-hydroxyethyl)-1H-pyrazol-4-yl)-1-(4-methoxybenzyl)-4-(5-methyloxazol-2-yl)-1,3-dihydro-2H-benzo[b]azepin-2-one]
- minimal effective concentration [1]: 0.001 to 1 µM
- minimal effective concentration [2, 5]: 0.001 to 1 µM
- minimal effective concentration [2, 6]: 0.001 to 1 µM
- minimal effective concentration [2, 7]: 0.001 to 1 µM
- TGI % ([3]; 15 mg/kg, 20 days): A (greater than 55% and less than or equal to 70%)

SMILES: COc1ccc(CN2C(=O)CC(c3ncc(C)o3)=Cc3ccc(-c4cnn(CCN5CCOCC5)c4)cc32)cc1 [Compound 38, 1-(4-methoxybenzyl)-4-(5-methyloxazol-2-yl)-8-(1-(2-morpholinoethyl)-1H-pyrazol-4-yl)-1,3-dihydro-2H-benzo[b]azepin-2-one]
- minimal effective concentration [1]: 0.001 to 1 µM
- minimal effective concentration [2, 5]: 0.001 to 1 µM
- minimal effective concentration [2, 6]: 0.001 to 1 µM
- minimal effective concentration [2, 7]: 0.001 to 1 µM
- TGI % ([3]; 36 mg/kg, 20 days): B (greater than 45% and less than or equal to 55%)

SMILES: COc1ccc(CN2C(=O)CC(c3ncc(C)o3)=Cc3ccc(-c4ccc(N)nc4)cc32)cc1 [Compound 42, 8-(6-aminopyridin-3-yl)-1-(4-methoxybenzyl)-4-(5-methyloxazol-2-yl)-1,3-dihydro-2H-benzo[b]azepin-2-one]
- minimal effective concentration [1]: 0.001 to 1 µM
- minimal effective concentration [2, 5]: 0.001 to 1 µM
- minimal effective concentration [2, 6]: 0.001 to 1 µM
- minimal effective concentration [2, 7]: 0.001 to 1 µM
- TGI % ([3]; 36 mg/kg, 13 days): C (greater than or equal to 35% and less than or equal to 45% μM)

SMILES: COc1ccc(CN2C(=O)CC(c3ncc(C)o3)=Cc3ccc(-c4ccc(=O)n(C)c4)cc32)cc1 [Compound 45, 1-(4-methoxybenzyl)-8-(1-methyl-6-oxo-1,6-dihydropyridin-3-yl)-4-(5-methyloxazol-2-yl)-1,3-dihydro-2H-benzo[b]azepin-2-one]
- minimal effective concentration [1]: 0.001 to 1 µM
- minimal effective concentration [2, 5]: 0.001 to 1 µM
- minimal effective concentration [2, 6]: 0.001 to 1 µM
- minimal effective concentration [2, 7]: 0.001 to 1 µM
- TGI % ([3]; 36 mg/kg, 20 days): A (greater than 55% and less than or equal to 70%)

SMILES: COCCn1cc(-c2ccc3c(c2)N(Cc2ccc(OC)cc2)C(=O)CC(c2ncc(C)o2)=C3)cn1 [Compound 51, 1-(4-methoxybenzyl)-8-(1-(2-methoxyethyl)-1H-pyrazol-4-yl)-4-(5-methyloxazol-2-yl)-1,3-dihydro-2H-benzo[b]azepin-2-one]
- minimal effective concentration [1]: 0.001 to 1 µM
- minimal effective concentration [2, 5]: 0.001 to 1 µM
- minimal effective concentration [2, 6]: 0.001 to 1 µM
- minimal effective concentration [2, 7]: 0.001 to 1 µM
- TGI % ([3]; 15 mg/kg, 29 days): A (greater than 55% and less than or equal to 70%)

SMILES: COc1ccc(CN2C(=O)CC(c3ncc(C)o3)=Cc3ccc(-c4cnn(CC5CC5)c4)cc32)cc1 [Compound 53, 8-(1-(cyclopropylmethyl)-1H-pyrazol-4-yl)-1-(4-methoxybenzyl)-4-(5-methyloxazol-2-yl)-1,3-dihydro-2H-benzo[b]azepin-2-one]
- minimal effective concentration [1]: 0.001 to 1 µM
- minimal effective concentration [2, 5]: 0.001 to 1 µM
- minimal effective concentration [2, 6]: 0.001 to 1 µM
- minimal effective concentration [2, 7]: 0.001 to 1 µM
- TGI % ([3]; 40 mg/kg, 20 days): C (greater than or equal to 35% and less than or equal to 45% μM)

SMILES: COc1ccc(CN2C(=O)CC(c3ncc(C)o3)=Cc3ccc(-c4cnn(C5COC5)c4)cc32)cc1 [Compound 54, 1-(4-Methoxybenzyl)-4-(5-methyloxazol-2-yl)-8-(1-(oxetan-3-yl)-1H-pyrazol-4-yl)-1,3-dihydro-2H-benzo[b]azepin-2-one]
- minimal effective concentration [1]: 0.001 to 1 µM
- minimal effective concentration [2, 5]: 0.001 to 1 µM
- minimal effective concentration [2, 6]: 0.001 to 1 µM
- minimal effective concentration [2, 7]: 0.001 to 1 µM
- TGI % ([3]; 50 mg/kg, 20 days): C (greater than or equal to 35% and less than or equal to 45% μM)

SMILES: COCCCn1cc(-c2ccc3c(c2)N(Cc2ccc(OC)cc2)C(=O)CC(c2ncc(C)o2)=C3)cn1 [Compound 57, 1-(4-Methoxybenzyl)-8-(1-(3-methoxypropyl)-1H-pyrazol-4-yl)-4-(5-methyloxazol-2-yl)-1,3-dihydro-2H-benzo[b]azepin-2-one]
- minimal effective concentration [1]: 0.001 to 1 µM
- minimal effective concentration [2, 5]: 0.001 to 1 µM
- minimal effective concentration [2, 6]: 0.001 to 1 µM
- minimal effective concentration [2, 7]: 0.001 to 1 µM
- TGI % ([3]; 80 mg/kg, 20 days): A (greater than 55% and less than or equal to 70%)

SMILES: COc1ccc(CN2C(=O)CC(c3ncc(C)o3)=Cc3ccc(-c4cnn(CC(C)O)c4)cc32)cc1 (centres unmarked) [Compound 61, 8-(1-(2-hydroxypropyl)-1H-pyrazol-4-yl)-1-(4-methoxybenzyl)-4-(5-methyloxazol-2-yl)-1,3-dihydro-2H-benzo[b]azepin-2-one]
- minimal effective concentration [1]: 0.001 to 1 µM
- TGI % ([4]; 10 mg/kg): A (greater than 55% and less than or equal to 70%)
- minimal effective concentration [2, 5]: 0.001 to 1 µM
- minimal effective concentration [2, 6]: 0.001 to 1 µM
- minimal effective concentration [2, 7]: 0.001 to 1 µM

SMILES: COc1ccc(CN2C(=O)CC(c3nnc(C4CC4)o3)=Cc3ccc(-c4cnn(CC(C)(C)O)c4)cc32)cc1 [Compound 94, 4-(5-Cyclopropyl-1,3,4-oxadiazol-2-yl)-8-(1-(2-hydroxy-2-methylpropyl)-1H-pyrazol-4-yl)-1-(4-methoxybenzyl)-1,3-dihydro-2H-benzo[b]azepin-2-one]
- minimal effective concentration [1]: 0.001 to 1 µM
- TGI % ([4]; 8 mg/kg): B (greater than 45% and less than or equal to 55%)
- minimal effective concentration [2, 5]: 0.001 to 1 µM
- minimal effective concentration [2, 6]: 0.001 to 1 µM
- minimal effective concentration [2, 7]: 0.001 to 1 µM

SMILES: COc1ccc(CN2C(=O)CC(c3cnco3)=Cc3ccc(-c4cnn(CC(C)(C)O)c4)cc32)cc1 [Compound 96, 8-(1-(2-Hydroxy-2-methylpropyl)-1H-pyrazol-4-yl)-1-(4-methoxybenzyl)-4-(oxazol-5-yl)-1,3-dihydro-2H-benzo[b]azepin-2-one]
- minimal effective concentration [1]: 0.001 to 1 µM
- TGI % ([4]; 20 mg/kg): A (greater than 55% and less than or equal to 70%)
- minimal effective concentration [2, 5]: 0.001 to 1 µM
- minimal effective concentration [2, 6]: 0.001 to 1 µM
- minimal effective concentration [2, 7]: 0.001 to 1 µM

SMILES: COc1ccc(C(=O)N2CCC(c3ncc(C)o3)=Cc3ccc(-c4cnn(CC(C)(C)O)c4)cc32)cc1 [Compound 104, (8-(1-(2-Hydroxy-2-methylpropyl)-1H-pyrazol-4-yl)-4-(5-methyloxazol-2-yl)-2,3-dihydro-1H-benzo[b]azepin-1-yl) (4-methoxyphenyl)methanone]
- minimal effective concentration [1]: 0.001 to 1 µM
- minimal effective concentration [2, 5]: 0.001 to 1 µM
- minimal effective concentration [2, 6]: 0.001 to 1 µM
- minimal effective concentration [2, 7]: 0.001 to 1 µM

SMILES: COc1ccc(C(=O)N2CCC(c3ncc(C)o3)=Cc3ccc(-c4cnn(CC(C)(C)O)c4)cc32)cn1 [Compound 105, (8-(1-(2-Hydroxy-2-methylpropyl)-1H-pyrazol-4-yl)-4-(5-methyloxazol-2-yl)-2,3-dihydro-1H-benzo[b]azepin-1-yl)(6-methoxypyridin-3-yl)methanone]
- minimal effective concentration [1]: 0.001 to 1 µM
- minimal effective concentration [2, 5]: 0.001 to 1 µM
- minimal effective concentration [2, 6]: 0.001 to 1 µM
- minimal effective concentration [2, 7]: 0.001 to 1 µM

SMILES: COc1ccc(C(=O)N2CCC(c3ncc(C)o3)=Cc3ccc(-c4cnn(CC(C)(C)O)c4)cc32)cc1F [Compound 106, (3-Fluoro-4-methoxyphenyl)(8-(1-(2-hydroxy-2-methylpropyl)-1H-pyrazol-4-yl)-4-(5-methyloxazol-2-yl)-2,3-dihydro-1H-benzo[b]azepin-1-yl)methanone]
- minimal effective concentration [1]: 0.001 to 1 µM
- minimal effective concentration [2, 5]: 0.001 to 1 µM
- minimal effective concentration [2, 6]: 0.001 to 1 µM
- minimal effective concentration [2, 7]: 0.001 to 1 µM

SMILES: COc1ccc(CN2C(=O)CC(c3ncc(C)o3)=Cc3ccc(-c4cnn(C(C)(C)C(N)=O)c4)cc32)cc1F [Compound 107, 2-(4-(1-(3-fluoro-4-methoxybenzyl)-4-(5-methyloxazol-2-yl)-2-oxo-2,3-dihydro-1H-benzo[b]azepin-8-yl)-1H-pyrazol-1-yl)-2-methylpropanamide]
- minimal effective concentration [1]: 0.001 to 1 µM
- minimal effective concentration [2, 5]: 0.001 to 1 µM
- minimal effective concentration [2, 6]: 0.001 to 1 µM
- minimal effective concentration [2, 7]: 0.001 to 1 µM
